Results on 13 compounds are retold here after US9872493B2, “Method for promoting plant growth” (SUMITOMO CHEMICAL COMPANY, LIMITED, priority 2012, dated 2018).

SMILES strings stand for the structures.

For experiment [1], the system named is Rice (Variety: Nipponbare). Kind of experiment: Test for evaluating promotion of root growth by hydroponics of rice (Test Examples 1-3). Format: in vivo. As for the experimental part: Rice (Variety: Nipponbare)
(§1) A DMSO solution, which contained one of the compounds 14, 18, 21, 23, 26, 28, 29, 30, 35, 36, 37, 39 and 40 of the present invention at a concentration of 100,000 ppm, was added to Hoagland hydroponic solution (Hoagland and Arnon, California Agricultural Experiment Station 1950 Circular 347 pp. 34) of ¼-fold concentration at a volume ratio of 1/10,000. In this manner, hydroponic solutions containing one of the compounds 14, 18, 21, 23, 26, 28, 29, 30, 35, 36, 37, 39 and 40 of the present invention at 10 ppm were prepared respectively. As an untreated control plot, a hydroponic solution obtained by adding DMSO to Hoagland hydroponic solution of ¼-fold concentration at a volume ratio of 1/10,000 was used.
Rice seeds were soaked in a 1% aqueous sodium hypochlorite solution for 10 minutes, then soaked in a 70% ethanol solution for surface sterilization, and then washed with distilled water. The sterilized seeds were soaked in a hydroponic solution containing the test compound described above at 10 ppm and incubated in a dark place for 3 days at 28° C. to perform treatment for hastening germination.
Thereafter, 30 ml of hydroponic solution containing the test compound at 10 ppm was dispensed in a plastic tube (diameter of 20 mm×height of 113 mm) of which the side was covered with cardboard to block light. A float prepared using a styrene board and vinyl mesh was floated, and the rice seeds that had undergone the treatment for hastening germination were placed on the float on the surface of the hydroponic solution. The seeds were cultivated for 3 days at 26° C., an illuminance of 4,000 lux of the top surface of the tube, a humidity of 50%, and a day length of 16 hours.
The nursery plants of rice obtained after cultivating were measured in terms of the length of seminal root by using WinRHIZO system (manufactured by Regent Instruments Inc). For each test plot, an average of the measured values of the seminal root of 4 or 5 individuals were determined.
as §1, with “compounds 7, 8, 9, 10, 12, 17, 20,” for “compounds 14, 18,”, “21, 25, 27,” for “21, 23, 26,”, “30, 34,” for “30,”, “37, 38,” for “37,”, “of 10,000” for “of 100,000”, “at 1” for “at 10”
Rice seeds were soaked in a 1% aqueous sodium hypochlorite solution for 10 minutes, then soaked in a 70% ethanol solution for surface sterilization, and then washed with distilled water. The sterilized seeds were soaked in a hydroponic solution containing the test compound described above at 1 ppm and incubated in a dark place for 3 days at 28° C. to perform treatment for hastening germination.
Thereafter, 30 ml of hydroponic solution containing the test compound at 1 ppm was dispensed in a plastic tube (diameter of 20 mm×height of 113 mm) of which the side was covered with cardboard to block light. A float prepared using a styrene board and vinyl mesh was floated, and the rice seeds that had undergone the treatment for hastening germination were placed on the float on the surface of the hydroponic solution. The seeds were cultivated for 3 days at 26° C., an illuminance of 4,000 lux of the top surface of the tube, a humidity of 50%, and a day length of 16 hours.
The nursery plants of rice obtained after cultivation were measured in terms of the length of seminal root by using WinRHIZO system (manufactured by Regent Instruments Inc). […]

Experiment [2] concerns Nicotiana benthamiana. The experiment is described as follows: Test for evaluating growth promotion under low-temperature stress by hydroponics of Nicotiana benthamiana (Test Examples 4-6). It is filed as in vivo. The settings on record: 7 days at 1.5±1.0° C. low-temperature stress, then 3 days at 22° C., green leaf area vs untreated control, read-out: value of a relative leaf area (equation (1)); for relative green leaf area after low-temperature stress at 0.1 ppm: compound at 0.1 ppm; for relative green leaf area after low-temperature stress at 1 ppm: compound at 1 ppm; for relative green leaf area after low-temperature stress at 10 ppm: compound at 10 ppm. As for the experimental part: A DMSO solution, which contained one of the compounds 5, 14, 22, 23, 24, 25, 26, 28, 30, 31, 32, 33, 34, 35, 38, 39 and 40 of the present invention at a concentration of 10,000 ppm, was prepared. The DMSO solution of the compound of the present invention was added at a volume ratio of 1/1,000 to the Murashige•Scoog medium of a ½-fold concentration (a medium containing 2.3 g of mixed salts (manufactured by Wako Pure Chemical Industries, Ltd.), 200 mg of Myo-inositol (manufactured by Sigma-Aldrich Co. LLC.), 2 mg of nicotinic acid (manufactured by Wako Pure Chemical Industries, Ltd.), 2 mg of pyridoxine hydrochloride (manufactured by Wako Pure Chemical Industries, Ltd.), 20 mg of thiamine hydrochloride (manufactured by Wako Pure Chemical Industries, Ltd.), 20 g of sucrose (manufactured by Wako Pure Chemical Industries, Ltd.), and 1 g of MES (manufactured by DOJINDO LABORATORIES) per 1 L of water and having pH adjusted to 5.8), thereby preparing a medium containing the compound of the present invention at a concentration of 10 ppm.
Seeds of Nicotiana benthamiana were seeded in the 5 μL of the medium and cultured overnight at 22° C. Thereafter, 45 μL of the medium containing the compound of the present invention at a concentration of 10 ppm was added thereto, and the seeds are cultivated for 7 days at 22° C., an illuminance of 4,000 lux, and a day length of 16 hours, thereby the nursery plants raised from the Nicotiana benthamiana were treated with the compound.
Moreover, instead of the above medium a test plot, which was obtained by performing the same treatment by using a medium prepared by adding DMSO to the Murashige•Scoog medium of ½-fold concentration at a volume ratio of 1/1,000, was used as a control plot not treated with the compound.
The nursery plants of the Nicotiana benthamiana treated with the compound were subjected to low-temperature treatment by being cultivated for 7 days at 1.5±1.0° C., an illuminance of 2,000 lux, and a day length of 16 hours.
The nursery plants of the Nicotiana benthamiana having undergone the low-temperature stress treatment were cultivated for 3 days at 22° C., an illuminance of 4,000 lux, and a day length of 16 hours. Thereafter, the area of green leaf was quantified by Scanalyzer HTS (manufactured by LemnaTec GmbH). Moreover, the value of the control plot not treated with the compound that had not yet been subjected to the low-temperature stress treatment was measured in the same manner. A value of a relative leaf area was calculated based on the following equation (1), and if the value of a relative leaf area was 5 or greater, the compound was evaluated to have a mitigating effect. As a result of the evaluation, it was confirmed that when the plant was treated with one of the compounds 5, 14, 22, 23, 24, 25, 26, 28, 30, 31, 32, 33, 34, 35, 38, 39 and 40 of the present invention at 10 ppm, the value of a relative leaf area was 5 or greater, compared to the area of green leaf of the control plot not treated with compound. Accordingly, it was confirmed that the treatment using the compound of the present invention brings about a growth promotion effect. Relative leaf area=100*(a green area of a plot treated with the compound of the present invention−a green area of a control plot not treated with the compound of the present invention)/(a green area of a control plot not treated with the compound of the present invention that has not yet been subjected to low-temperature stress treatment−a green area of a control plot not treated with the compound of the present invention) Equation (1): […]
A DMSO solution, which contained one of the compounds 6, 7, 8, 11, 12, 15, 19, 23, 24, 25, 28, 30, 31, 33, 34, 36, 37, 38 and 39 of the present invention at a concentration of 1,000 ppm, was prepared. […]

For `NC(=O)c1cccc2sc(C(F)(F)F)cc12` [Compound 3, 2-trifluoromethylbenzo[b]thiophene-4-carboxamide], the “length of seminal root compared with the untreated control plot (in words)” value in experiment [1] (0.1 ppm) is listed as “obviously longer”. Further, in experiment [2], the relative green leaf area after low-temperature stress at 0.1 ppm is at least 5%.
For the compound `O=C(O)c1cccc2cc(C(F)(F)F)sc12` [Compound 9, 2-trifluoromethylbenzo[b]thiophene-7-carboxylic acid], in experiment [1] (1 ppm), the “length of seminal root compared with the untreated control plot (in words)” value was “obviously longer”. For the same compound, the relative green leaf area after low-temperature stress at 0.1 ppm in experiment [2] was at least 5%.
With `CNC(=O)c1csc2cc(C(F)(F)F)ccc12` [Compound 31], the “length of seminal root compared with the untreated control plot (in words)” value in experiment [1] (0.1 ppm) is recorded as “obviously longer”. Moreover, in experiment [2], the relative green leaf area after low-temperature stress at 0.1 ppm is at least 5%, the relative green leaf area after low-temperature stress at 1 ppm was at least 5% and the relative green leaf area after low-temperature stress at 10 ppm is at least 5%.
For `COC(=O)c1csc2ccc(C(F)(F)F)cc12` [Compound 14, methyl 5-trifluoromethylbenzo[b]thiophene-3-carboxylate], in experiment [1] (10 ppm), the “length of seminal root compared with the untreated control plot (in words)” value is listed as “obviously longer”. Also, the relative green leaf area after low-temperature stress at 10 ppm in experiment [2] is at least 5%.
Turning to `COC(=O)c1csc2ccccc12` [Compound 12, methyl benzo[b]thiophene-3-carboxylate], the “length of seminal root compared with the untreated control plot (in words)” value in experiment [1] (1 ppm) is “obviously longer”. Also, in experiment [2], the relative green leaf area after low-temperature stress at 1 ppm was at least 5%.
Turning to `Cc1sc2ccccc2c1C(=O)O` [Compound 20], the “length of seminal root compared with the untreated control plot (in words)” value in experiment [1] (0.1 ppm) and in experiment [1] (1 ppm) was “obviously longer” throughout. Also, the relative green leaf area after low-temperature stress at 0.1 ppm in experiment [2] was at least 5%.
Take `O=C(NCc1ccccc1)c1csc2c(C(F)(F)F)cccc12` [Compound 40]: the “length of seminal root compared with the untreated control plot (in words)” value in experiment [1] (1 ppm) and in experiment [1] (10 ppm) was “obviously longer” in each case. Further, the relative green leaf area after low-temperature stress at 10 ppm in experiment [2] was at least 5%.
As for `NC(=O)c1c(C(F)(F)F)sc2ccccc12` [Compound 23], the “length of seminal root compared with the untreated control plot (in words)” value in experiment [1] (10 ppm) is recorded as “obviously longer”. Also, in experiment [2], the relative green leaf area after low-temperature stress at 1 ppm is at least 5% and the relative green leaf area after low-temperature stress at 10 ppm was at least 5%.
As for `COC(=O)c1csc2cc(C(F)(F)F)ccc12` [Compound 28], in experiment [1] (0.1 ppm), the “length of seminal root compared with the untreated control plot (in words)” value is “obviously longer”. For the same compound, the “length of seminal root compared with the untreated control plot (in words)” value in experiment [1] (1 ppm) was “obviously longer”. For the same compound, the “length of seminal root compared with the untreated control plot (in words)” value in experiment [1] (10 ppm) is given as “obviously longer”. In experiment [2], the relative green leaf area after low-temperature stress at 0.1 ppm is at least 5%, the relative green leaf area after low-temperature stress at 1 ppm is at least 5% and the relative green leaf area after low-temperature stress at 10 ppm was at least 5%.
Regarding `O=C(O)c1csc2c(C(F)(F)F)cccc12` [Compound 34], the “length of seminal root compared with the untreated control plot (in words)” value in experiment [1] (0.1 ppm) is “obviously longer”. Moreover, the “length of seminal root compared with the untreated control plot (in words)” value in experiment [1] (1 ppm) was “obviously longer”. Besides, in experiment [2], the relative green leaf area after low-temperature stress at 0.1 ppm was at least 5%, the relative green leaf area after low-temperature stress at 1 ppm was at least 5% and the relative green leaf area after low-temperature stress at 10 ppm is at least 5%.
On to `NC(=O)c1csc2cccc(C(F)(F)F)c12` [Compound 19], for which the “length of seminal root compared with the untreated control plot (in words)” value in experiment [1] (0.1 ppm) is “obviously longer”. The relative green leaf area after low-temperature stress at 1 ppm in experiment [2] was at least 5%.
Consider `CNC(=O)c1csc2c(C(F)(F)F)cccc12` [Compound 38], for which the “length of seminal root compared with the untreated control plot (in words)” value in experiment [1] (0.1 ppm) and in experiment [1] (1 ppm) was “obviously longer” throughout. Besides, the relative green leaf area after low-temperature stress at 1 ppm in experiment [2] was at least 5%. The relative green leaf area after low-temperature stress at 10 ppm in experiment [2] is at least 5%.
In the case of `O=C(Nc1ccccc1)c1c(C(F)(F)F)sc2ccccc12` [Compound 25], the “length of seminal root compared with the untreated control plot (in words)” value in experiment [1] (1 ppm) was “obviously longer”. In experiment [2], the relative green leaf area after low-temperature stress at 1 ppm was at least 5% and the relative green leaf area after low-temperature stress at 10 ppm was at least 5%.
